# Measured values reported in patent US20050004007A1, “Promotion of adoptosis in cancer cells by co-administration of cyclin dependent kinase inhibitiors and cellular differentiation agents” (priority 2000, published 2005).
# Key:
# [1] = tested on: U937 cells; experiment: cell cycle analysis (propidium iodide, flow cytometry); assay type: cell-based, human; details: 24 h after administration of SAHA, FP or both
# Experimental: Cell Cycle Analysis. Following drug treatment, cells were pelleted by centrifugation at 500 g×6 min, and resuspended in 70% ethanol. The cells were incubated on ice for at least 1 h and resuspended in 1 ml cell cycle buffer (0.38 mM Na-Citrate, 0.5 mg/ml RNase A, and 0.01 mg/ml propidium iodide) at a concentration of 10×10^5 cells/ml, stored in the dark at 4 C until analysis (24 h), using a Becton-Dickinson FACScan flow cytometer and Verity Winlist software (Verity Software, Topsham, Me.).
# [2] = tested on: U937 myelomonocytic human leukemia cells; experiment: percent cell death; assay type: cell-based; details: 1 μM SAHA, 100 nM FP, 24 hours after administration
# [3] = tested on: HL-60 promyelocytic leukemia cells; experiment: percent cell death; assay type: cell-based, human; details: SAHA 1 and 1.5 μM alone or with 100 or 150 nM FP
# [4] = tested on: U937/Bcl-2 cells; experiment: morphological assessment of apoptosis in Bcl-2 overexpressing cells; assay type: cell-based, human; details: ara-C 1.0 μM x 6 h
# Source text: (§1) Cell culture. The myelomonocytic leukemia cell line U937 was derived from a patient with histiocytic lymphoma and was obtained from American Type Culture Collection. The HL-60 cell line was derived from a patient with acute promyelocytic leukemia as previously described [Grant et al. 1992]. U937 and HL-60 cells were maintained in logarithmic growth phase by culturing in suspension in phenol red-free RPMI-1640 (Life Technologies, Inc., Grand Island, N.Y.) and 10% (v/v) fetal calf serum (Hyclone, Logan, Utah), in a humidified atmosphere (95% air/5% CO2) at 37° C. To obtain antisense-expressing cell lines, U937 cells were transfected by electroporation with a pREP4 vector (Invitrogen; Carlsbad, Calif.) or the pREP4 vector containing the p21^WAF1/CIP1 coding region in an antisense orientation as previously described [Wang et al. 1999]. […]
# (§2) Morphological assessment of apoptosis. U937 cells were evaluated for apoptosis by morphological assessment of Wright and Giemsa-stained cytospin preparations. At designated times, cells were transferred to slides by cytocentrifugation, fixed, stained, and evaluated under light microscopy for treatment-induced apoptosis. […] Five or more randomly selected fields, encompassing a total≧500 cells/slide, were evaluated to determine the percentage of apoptotic cells for each treatment condition.
# [5] = tested on: U937 cells; experiment: clonogenic survival assay; assay type: cell-based, human; details: 24-h exposure; 10 nM PMA alone or 10 nM PMA/100 nM FP
# Experimental: Clonogenic survival assays. Clonogenic survival assays assessed the effects of 10 nM PMA, FP (50 or 100 nM) or PMA/FP co-treatments on leukemic cell self-renewal capacity. Cell densities were determined after 24-h drug treatment using a Coulter Counter (Coulter Electronics, Hialeah, Fla.). Cells were pelleted by centrifugation and resuspended in fresh media to achieve a final cell density of 3×10^5/ml. A total of 4500 cells were plated in soft agar cloning medium for each condition as previously described [Powell et al. 1995]. Colonies, defined as groups of≧50 cells, were scored after 12 days of incubation. Clonogenic survival in drug-treated samples was expressed as a percentage relative to untreated controls.
# [6] = tested on: U937 cells; experiment: CD11b surface differentiation marker expression (flow cytometry); assay type: cell-based, human; details: 24 h; 10 nM PMA alone or with 50 nM FP
# Experimental: (§3) Differentiation studies. Expression of the monocytic differentiation marker, CD11b, was monitored by direct immunofluorescence staining and flow cytometric analysis as previously described [Freemerman et al. 1997]. Following drug treatment, suspension and adherent cells were enumerated by a Coulter Counter and 2×10^6 cells were pelleted by centrifugation. The supernatant was aspirated and the cells were resuspended in 300 μl of ice-cold PBS. Two 100 μl aliquots from each sample were then combined with either phycoerythrin-1 (10 μl) or the IgG control. Samples were incubated for 20 min at 4° C. and diluted in PBS (1 ml). Sample data were collected using a Becton Dickinson FACScan flow cytometer and analyzed with Verity Winlist Software (Verity; Topsham, Me.). […] U937 cells were transfected with a full-length p21^WAF1/CIP1 promoter (base pairs 1-2326) as described by Chinery et al. [Chinery et al. 1997] utilizing electroporation (Eppendorf Multiporator, 620V, 60 μs) in hypoosmolar buffer. In each experiment, pSV-βgal (Promega), containing the β-galactosidase gene under the control of the constitutively active SV40 promoter and enhancer, was co-transfected with the luciferase reporter at a ratio of 1:5 (w/w) to normalize for transfection efficiency. The cells were incubated overnight in complete media and treated with 10 nM PMA, 100 nM FP, or 10 nM PMA/100 nM FP for 3 or 6 h. At indicated times, cells were washed in serum-free media, resuspended in 0.25M Tris-HCl pH 7.8, lysed by rapid freeze-thaw, centrifuged and the supernatant frozen at −70° C. Lysates (20 μL) were mixed with luciferase assay reagent (100 μL) and monitored for 20 seconds in a luminometer (Monolight 2010). For β-galactosidase activity, lysates (50 μL) were mixed in triplicate with an equal volume of luciferase assay buffer (2×) in a 96-well plate and incubated overnight. The reaction was terminated by addition of NaCO3 and absorbance was measured at 405 nm in a Vmax plate reader (Molecular Devices). Activity was determined by comparison to a standard curve. […]
# [7] = tested on: U937 cells; experiment: plastic adherence (differentiation); assay type: cell-based, human; details: 10 nM PMA alone or with FP 100 nM
# Experimental: as §3, with “In each experiment, pSV-βgal (Promega), containing the β-galactosidase gene under the control of the constitutively active SV40 promoter and enhancer, was co-transfected with the luciferase reporter at a ratio of 1:5 (w/w) to normalize for transfection efficiency. The cells were incubated overnight in complete media and treated with 10 nM PMA, 100 nM FP, or 10 nM PMA/100 nM FP for 3 or 6 h. At indicated times, cells were washed in serum-free media, resuspended in 0.25M Tris-HCl pH 7.8, lysed by rapid freeze-thaw, centrifuged and the supernatant frozen at −70° C.” left out, “For β-galactosidase activity, lysates (50 μL) were mixed in triplicate with an equal volume of luciferase assay buffer (2×) in a 96-well plate and incubated overnight.” left out
# [8] = tested on: p21WAF1/CIP1 full-length promoter; experiment: p21WAF1/CIP1 luciferase reporter assay; assay type: cell-based, human; details: 10 nM PMA, 100 nM FP, 3 and 6 h
# Experimental: as §3, with “In each experiment, pSV-βgal (Promega), containing the β-galactosidase gene under the control of the constitutively active SV40 promoter and enhancer, was co-transfected with the luciferase reporter at a ratio of 1:5 (w/w) to normalize for transfection efficiency. The cells were incubated overnight in complete media and treated with 10 nM PMA, 100 nM FP, or 10 nM PMA/100 nM FP for 3 or 6 h. At indicated times, cells were washed in serum-free media, resuspended in 0.25M Tris-HCl pH 7.8, lysed by rapid freeze-thaw, centrifuged and the supernatant frozen at −70° C.” left out, “For β-galactosidase activity, lysates (50 μL) were mixed in triplicate with an equal volume of luciferase assay buffer (2×) in a 96-well plate and incubated overnight.” left out
# [9] = tested on: p21WAF1/CIP1; experiment: Western analysis of p21WAF1/CIP1 expression in U937 cells; assay type: cell-based, human
# Experimental: (§4) Western analysis. Equal quantities of protein (15 μg/condition for MAPK, 40 μg/condition for cytochrome c, or 25 μg/condition) were separated by SDS-PAGE [underphosporylated pRB (7.5%), poly(ADP-ribose)polymerase or PARP (8.0%), p44/p42 MAPK (10%), p21, p27, procaspase 3 (12%), and cytochrome c (15%)] and electroblotted onto nitrocellulose. Western analysis of p44/p42 MAPK protein was performed according to the manufacturer's instructions (New England Biolabs); otherwise, studies were performed as previously described [Wang et al, 1998]. Briefly, U937 cells (5×10^6) were pelleted by centrifugation, resuspended in 50 μl PBS, lysed by the addition of 2× Laemmli buffer and boiled for 5 min. Proteins were quantified with Coomassie protein assay reagent. Blots were blocked in PBS-T/5% milk, washed twice with PBS-T, and incubated overnight at 4° C. with the appropriate primary antibody. The blots were washed with PBS-T and incubated with a horseradish-peroxidase conjugated secondary antibody diluted appropriately in PBS-T/5% mill. Following incubation, blots were developed by enhanced chemiluminescence exposure to Kodak X-OMAT film (Eastman Kodak Co., Rochester, N.Y.) and reprobed with antibodies directed against actin to control for equal loading of protein.
# (§5) Alternatively, whole cell-pellets were washed twice in PBS, resuspended in PBS, and lysed by the addition of I volume of loading buffer. Lysates were boiled for 10 min, centrifuged at 12,800 g for 5 min and quantified using Coomassie protein assay reagent (Pierce, Rockfold, Ill.). 25 μg of total proteins per point were separated by SDS-PAGE and electro-blotted to nitrocellulose. The blots were blocked in 5% non-fat milk in PBS-T and probed for 1 h with the appropriate dilution of primary antibody. Blots were washed 3×10 min in PBS-T and then incubated with a 1:2000 dilution of peroxidase-conjugated secondary antibody for 1 h at room temperature. Blots were again washed 3×10 min in PBS-T and then developed by enhanced chemiluminesence. Where indicated, blots were stripped and re-probed with antibodies directed against actin.
# (§6) Primary antibodies for both p21^WAF1/CIP1 and p27^KIP1 (Transduction Laboratories, Lexington, Ky.) were used in a 1:1000 dilution; PARP (1:1000; Oncogene Research Products, Cambridge, Mass.); pro-caspase 3 (1:1000; Transduction Laboratories); cytochrome c (1:2000; Pharmingen); bcl-2 (1:2000; DAKO, Denmark); bax (1:1000; Santa Cruz Biotechnology, Inc., Santa Cruz, Calif.); bid (1:1000; Cell Signaling, Beverly, Mass.); XIAP (1:1000; Cell Signaling); Mcl-1 (1:1000; Pharmingen); bak (1:1000; Calbiochem); c-Myc (1:1000; Pharmingen, San Diego, Calif.); actin (1:2000; Sigma Chemicals, St. Louis, Mo.); cyclins-D1, -A and -E (1:1000; Pharmingen); pRb, underP-pRb, pRb-CDK2 and pRb-CDK4 (all 1:1000; Pharmingen); Ac-H3 and Ac-H4 (both 1:1000; Upstate Biotechnology, Lake Placid, N.Y.); E2F-1 (Upstate Biotechnology). Secondary antibodies conjugated to horseradish peroxidase were obtained from Kirkegaard and Perry Laboratories, Inc. (Gaithersburg, Md.). Coomassie protein assay reagent was purchased from Pierce (Rockford, Ill.), and an enhanced chemiluminescence kit was obtained from New England Nuclear (Boston, Mass.). The pan-caspase inhibitor BOC-D-fmk and the caspase 8 inhibitor Z-IETD-fmk were purchased from Enzyme System Products (Livermore, Calif.) All other chemicals or reagents were purchased from Sigma.
# [10] = tested on: p27KIP1; experiment: Western analysis of p27KIP1 expression in U937 cells; assay type: cell-based, human; details: 10 nM PMA, FP 50-100 nM, 24 h
# Experimental: as §4, with “Following incubation, blots were developed by enhanced chemiluminescence exposure to Kodak X-OMAT film (Eastman Kodak Co., Rochester, N.Y.) and reprobed with antibodies directed against actin to control for equal loading of protein.” left out
# Alternatively, whole cell-pellets were washed twice in PBS, resuspended in PBS, and lysed by the addition of I volume of loading buffer. Lysates were boiled for 10 min, centrifuged at 12,800 g for 5 min and quantified using Coomassie protein assay reagent (Pierce, Rockfold, Ill.). […]
# [11] = tested on: pRb; experiment: Western analysis of underphosphorylated pRb in U937 cells; assay type: cell-based, human
# Experimental: as §4, §5, §6
# [12] = tested on: ERK1/2; experiment: Western analysis of phosphorylated p44/p42 MAPK in U937 cells; assay type: cell-based, human; details: 10 nM PMA, 100 nM FP, 30 min-6 h
# Experimental: as §4
# [13] = tested on: HL-60 human promyelocytic leukemia cells; experiment: morphological assessment of apoptosis; assay type: cell-based; details: 3, 5, or 10 μM ATRA, 80 nM FP
# Source text: as §1, §2
structure (smiles),measurement,setting,value
"O=C(CCCCCCC(=O)Nc1ccccc1)NO [SAHA, suberoylanilide hydroxamic acid]",cell cycle distribution,[1],prominent increase in the percentage of cells arresting in G0/G1
same,cell death,[2],ineffective
same,cell death,[3],modest levels of cell death
"Nc1ccn([C@@H]2O[C@H](CO)[C@@H](O)[C@@H]2O)c(=O)n1 [ara-C, 1-β-D-arabinofuranosylcytosine]",lethal effects in Bcl-2 overexpressing cells,[4],significantly protected
"CCCCCCCCCCCCCC(=O)O[C@@H]1[C@@H](C)[C@@]2(O)[C@@H](C=C(CO)C[C@]3(O)C(=O)C(C)=C[C@@H]23)[C@@H]2C(C)(C)[C@]12OC(C)=O [PMA, phorbol 12-myristate 13-acetate]","clonogenic survival, percentage relative to untreated controls",[5],15%
same,percentage of cells displaying CD11b expression,[6],26%
same,percentage of cells with plastic adherence,[7],80%
same,p21WAF1/CIP1 reporter activity,[8],markedly increased
same,p21WAF1/CIP1 expression,"[9]; 10 nM PMA, FP 50-100 nM, 24 h",significant increase
same,time to induction of p21WAF1/CIP1 after drug addition,[9]; PMA 10 nM,≤ 1 h
same,p27KIP1 expression,[10],slight increase
same,time of pRb dephosphorylation,[11]; 10 nM PMA alone,3 h
same,full-length underphosphorylated pRb,"[11]; 10 nM PMA, FP 50, 80 or 100 nM, 24 h",significant increase
same,phosphorylation (activation) of ERK1/2,[12],increase in phosphorylated ERK1/2
"CC1=C(/C=C/C(C)=C/C=C/C(C)=C/C(=O)O)C(C)(C)CCC1 [ATRA, all trans retinoic acid]",% apoptosis,[13],minimal effect
